{"source": "paper PMC5590943", "about": "“Pharmacological characterisation of S 47445, a novel positive allosteric modulator of AMPA receptors” (PLoS ONE, 2017)", "key": {"[1]": {"test_system": "Rat AMPA receptors", "test": "AMPA-evoked currents, Xenopus laevis oocytes injected with rat cortex poly(A+) mRNA (two-electrode voltage clamp)", "format": "cell-based", "conditions": "geometric mean", "protocol": "(§1) Compounds were tested by bath application."}, "[2]": {"test_system": "recombinant human AMPA receptors (GluA1, GluA2 and GluA4 flip and flop variants)", "test": "Glutamate-evoked currents, oocytes, across GluA recombinants", "format": "cell-based", "conditions": "all tested subtypes except GluA4 flop; read-out: EC50 values among most GluA recombinants", "protocol": "as §1"}, "[3]": {"target": "T1, GluA1flop/GluA2flip AMPA receptors (Homo sapiens, UniProt P42261+P42262, Q607R)", "T1 construct": "host or cells: Xenopus laevis oocytes", "T1 sequence (P42261 19-906)": "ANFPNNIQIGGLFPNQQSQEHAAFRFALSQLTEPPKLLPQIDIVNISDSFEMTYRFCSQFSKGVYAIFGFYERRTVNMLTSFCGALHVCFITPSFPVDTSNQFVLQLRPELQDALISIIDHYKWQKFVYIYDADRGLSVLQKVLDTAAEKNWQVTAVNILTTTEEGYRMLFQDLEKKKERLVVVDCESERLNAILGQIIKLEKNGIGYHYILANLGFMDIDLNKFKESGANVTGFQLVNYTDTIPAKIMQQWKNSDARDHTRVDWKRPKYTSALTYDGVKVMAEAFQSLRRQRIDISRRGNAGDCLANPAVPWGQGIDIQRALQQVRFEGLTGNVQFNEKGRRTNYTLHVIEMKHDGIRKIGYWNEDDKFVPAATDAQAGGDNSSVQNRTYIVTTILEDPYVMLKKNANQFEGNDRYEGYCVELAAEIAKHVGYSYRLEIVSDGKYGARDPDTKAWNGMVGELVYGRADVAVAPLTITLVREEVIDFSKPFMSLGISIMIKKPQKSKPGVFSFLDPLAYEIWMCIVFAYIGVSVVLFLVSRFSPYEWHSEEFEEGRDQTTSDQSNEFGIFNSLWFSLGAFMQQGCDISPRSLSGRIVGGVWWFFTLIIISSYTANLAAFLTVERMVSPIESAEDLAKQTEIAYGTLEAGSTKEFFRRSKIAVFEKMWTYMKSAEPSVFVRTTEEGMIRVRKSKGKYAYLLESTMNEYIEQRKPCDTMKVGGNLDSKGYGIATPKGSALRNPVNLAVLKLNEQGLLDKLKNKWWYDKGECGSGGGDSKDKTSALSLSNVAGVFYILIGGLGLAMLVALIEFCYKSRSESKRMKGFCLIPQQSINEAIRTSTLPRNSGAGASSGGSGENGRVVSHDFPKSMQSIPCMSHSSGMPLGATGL", "T1 sequence (P42262 22-883 isoform P42262-2 Q607R limits assumed)": "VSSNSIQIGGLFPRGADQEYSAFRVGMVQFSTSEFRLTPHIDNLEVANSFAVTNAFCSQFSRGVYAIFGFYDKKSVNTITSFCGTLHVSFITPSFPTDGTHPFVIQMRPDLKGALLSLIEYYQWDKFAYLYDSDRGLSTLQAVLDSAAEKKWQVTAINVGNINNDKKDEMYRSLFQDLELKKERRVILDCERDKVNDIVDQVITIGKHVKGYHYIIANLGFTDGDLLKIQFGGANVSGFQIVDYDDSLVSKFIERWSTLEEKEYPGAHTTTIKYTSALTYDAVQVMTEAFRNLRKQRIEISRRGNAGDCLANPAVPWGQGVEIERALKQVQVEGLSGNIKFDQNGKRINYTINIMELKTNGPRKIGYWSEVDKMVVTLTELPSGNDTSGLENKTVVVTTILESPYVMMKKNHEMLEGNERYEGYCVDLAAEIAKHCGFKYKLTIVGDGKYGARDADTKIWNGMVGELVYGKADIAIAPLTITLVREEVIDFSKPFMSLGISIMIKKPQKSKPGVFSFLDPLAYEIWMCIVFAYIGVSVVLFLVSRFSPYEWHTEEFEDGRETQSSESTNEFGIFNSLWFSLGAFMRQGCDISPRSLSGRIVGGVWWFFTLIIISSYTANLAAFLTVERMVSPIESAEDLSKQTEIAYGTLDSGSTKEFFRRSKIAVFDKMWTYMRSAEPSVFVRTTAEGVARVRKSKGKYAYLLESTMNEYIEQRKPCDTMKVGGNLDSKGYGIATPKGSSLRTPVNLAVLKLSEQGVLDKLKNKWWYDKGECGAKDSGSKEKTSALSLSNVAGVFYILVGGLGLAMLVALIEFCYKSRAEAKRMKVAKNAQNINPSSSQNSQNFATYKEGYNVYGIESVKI", "test": "10 μM glutamate-evoked currents in Xenopus laevis oocytes expressing GluA1flop/GluA2flip (repetitive pulses, GYKI52466)", "format": "cell-based", "conditions": "for EC50: n = 3", "protocol": "as §1\nTo test the inhibition, the selective AMPA receptor antagonist GYKI52446 was used from 10 to 1000 μM on the potentiation caused by S 47445 (1 μM).\nEC50 were determined either using Matlab (Mathworks inc., Natick, USA) or SAS v9.2 (SAS Institute inc., Cary, USA) softwares. To have a comparative value between the tested drugs when EC50 could not be determined (absence of plateau at high concentrations), the EC2X was determined. EC2X corresponds to the concentrations of the drug responsible for a two-fold increase in the amplitude of the current."}, "[4]": {"test_system": "male adult Wistar rats", "test": "Spontaneous locomotor activity in rats", "format": "in vivo, rat", "conditions": "10, 30 and 100 mg/kg p.o. acute; n = 9", "protocol": "Locomotor activity was recorded in male adult Wistar rats (180–200 g, Janvier Labs, Le Genest Saint Isle, France) placed in cages in a soundproof keeping room (open-field). A remote surveillance appliance allowed to observe and to record animal behaviour from an adjacent room. The movie camera was connected to an automatic analysis system (videotrack software, Viewpoint, Lissieu, France). The distance covered (cm) was automatically computed for each rat. Rats were orally administered 1 h before the test with S 47445 (10, 30 and 100 mg/kg) or vehicle. Locomotor activity was recorded during 30 min divided in 3 x 10-min periods. The total covered distance over 30 min was analysed using one way (dose) ANOVA, followed in case of significance of the dose effect by Dunnett’s test (versus vehicle controls). The significance threshold was set at 5%. Analyses were performed using SAS v9.2 software (SAS Institute, Cary, NC)."}, "[5]": {"test_system": "Male Wistar rats", "test": "Functional observation battery in rats (Irwin)", "format": "in vivo, rat", "protocol": "Any effects on body temperature were also assessed. Methods were adapted from those described by Irwin, 1968 for detecting behavioural effects in mice.\nMale Wistar rats (Depré breeding centre, France), 6 weeks of age (160.0–190.6 g) on the day of randomisation were used. On the day of the test, animals were first scored using the Irwin standardised observation battery, and the body temperature was measured to establish baseline measurements. Groups of rats were then orally treated with S 47445 (50, 200, 500 and 1000 mg/kg) or its vehicle or clonidine, a reference item (3 mg/kg in water). The Irwin scores as well as measurement of body temperature were performed again at 1, 2, 4, 6 and 24 hours after administration of S 47445. Individual observation data were presented as a score attributed to each behavioural sign (intensity and relevance). For observations with absence or presence, the number of animals with the sign was provided per group. For other observations, the median value for each sign per time was presented per group. For body temperature, data were expressed as variations from predose values. […] The treatment effect on body temperature was analysed using one way ANOVA followed by Newman-Keul’s post hoc test. […]"}, "[6]": {"test_system": "α1 (non-selective)", "test": "Binding assay, [3H]prazosin"}, "[7]": {"test_system": "Ca2+ channel (L, verapamil site) phenylalkylamines)", "test": "Binding assay, [3H](-)D 888"}, "[8]": {"test_system": "SK^+Ca channel", "test": "Binding assay, [125I]apamin"}, "[9]": {"test_system": "α2 (non-selective)", "test": "Binding assay, [3H]RX 821002"}, "[10]": {"test_system": "Androgen (h) (AR)", "test": "Binding assay, [3H]methyltrienolone"}, "[11]": {"test_system": "about a hundred receptors, enzymes, transporters and channels", "test": "CEREP panel, competition binding and enzyme assays"}, "[12]": {"test_system": "Guanylyl cyclase (stimulated)", "test": "Enzyme and cell-based assay, GTP (0.1 mM) / SNP (10 μM)"}, "[13]": {"test_system": "NMDA", "test": "Binding assay, [3H]CGP 39653, rat cerebral cortex membranes"}, "[14]": {"test_system": "Kainate", "test": "Binding assay, [3H]kainic acid, rat cerebral cortex membranes"}, "[15]": {"test_system": "Adenylyl cyclase (stimulated)", "test": "Enzyme and cell-based assay, ATP (0.5 mM) / forskolin (10 μM)"}, "[16]": {"test_system": "rat primary cortical cell cultures", "test": "LDH release toxicity assay on rat primary cortical cell cultures", "conditions": "S 47445 10 μM"}, "[17]": {"test_system": "kainate receptors", "test": "Kainate-evoked currents, oocytes injected with rat cortex poly(A+) mRNA", "conditions": "n = 3"}, "[18]": {"target": "GluA1flop/GluA2flip (GluA1o/2i) AMPA receptors (Homo sapiens, UniProt P42261+P42262, Q607R)", "sequence (P42261 19-906)": "as the sequence (P42261 19-906) above", "sequence (P42262 25-883 isoform P42262-2 Q607R)": "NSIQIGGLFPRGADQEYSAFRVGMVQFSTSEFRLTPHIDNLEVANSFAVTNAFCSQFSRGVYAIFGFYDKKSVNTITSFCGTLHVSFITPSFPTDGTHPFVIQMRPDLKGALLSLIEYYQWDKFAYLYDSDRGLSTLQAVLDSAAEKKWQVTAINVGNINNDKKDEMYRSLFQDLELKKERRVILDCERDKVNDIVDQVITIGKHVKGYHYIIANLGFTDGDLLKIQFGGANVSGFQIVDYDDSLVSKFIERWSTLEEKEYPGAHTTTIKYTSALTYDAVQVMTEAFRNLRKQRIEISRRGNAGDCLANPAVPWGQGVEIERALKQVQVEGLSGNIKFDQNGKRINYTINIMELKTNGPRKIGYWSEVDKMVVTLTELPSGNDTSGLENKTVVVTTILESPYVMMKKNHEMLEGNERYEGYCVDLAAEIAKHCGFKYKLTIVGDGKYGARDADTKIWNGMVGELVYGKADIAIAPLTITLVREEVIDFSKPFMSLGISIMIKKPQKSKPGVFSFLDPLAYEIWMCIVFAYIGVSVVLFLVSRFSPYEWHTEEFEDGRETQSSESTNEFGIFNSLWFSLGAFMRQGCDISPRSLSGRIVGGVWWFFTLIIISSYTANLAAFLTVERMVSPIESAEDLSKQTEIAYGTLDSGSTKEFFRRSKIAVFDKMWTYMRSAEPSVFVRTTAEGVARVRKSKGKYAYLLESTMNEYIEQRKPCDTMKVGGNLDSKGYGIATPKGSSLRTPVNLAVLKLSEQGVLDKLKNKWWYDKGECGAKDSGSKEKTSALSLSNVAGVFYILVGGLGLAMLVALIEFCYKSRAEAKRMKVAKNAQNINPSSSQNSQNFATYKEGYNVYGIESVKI", "test": "Whole cell patch clamp recordings in transiently transfected HEK-293 cells", "conditions": "0.1 μM S 47445"}, "[19]": {"conditions": "read-out: Ki, glutamate binding site, n = 2"}}, "note": "Where “and” joins values, the source holds several entries; their conditions need not be identical. Equal values may be shown once.", "data": [{"smiles": "O=C1c2cc3nnn(CCc4cccc(F)c4)c(=O)c3cc2OCN1C1CC1", "note": "[S 47445, 8-cyclopropyl-3-[2-(3-fluorophenyl)ethyl]-7,8-dihydro-3H-[1,3]oxazino[6,5-g][1,2,3]benzotriazine-4,9-dione]", "values": [{"measurement": "EC2X", "setting": "[1]; concentration giving a two-fold increase in current amplitude", "value": 1.53, "unit": "µM"}, {"measurement": "EC50", "setting": "[1]; potentiation of 10 μM AMPA-evoked current", "value": "6.5 µM and 6.54 µM"}, {"measurement": "EC50", "setting": "[2]", "value": "2.5 to 5.4", "unit": "µM"}, {"measurement": "EC50", "setting": "[3]; EC50 of potentiation in absence of GYKI52466, 10 μM glutamate", "value": "3.23 ± 0.5", "unit": "µM"}, {"measurement": "EC50", "setting": "[3]; EC50 of potentiation in presence of 100μM of GYKI52466, 10 μM glutamate", "value": "1.99 ± 0.3", "unit": "µM"}, {"measurement": "Effect on glutamate-evoked currents with repetitive glutamate pulses", "setting": "[3]; S 47445 0.1 and 0.3 μM, 10 μM glutamate 20 s, 1/min", "value": "progressive potentiation of the glutamate-evoked currents from the second pulse of glutamate"}, {"measurement": "Total distance of spontaneous locomotor activity", "setting": "[4]", "value": "did not significantly modify"}, {"measurement": "Body temperature and behavior", "setting": "[5]; 50, 200, 500 and 1000 mg/kg oral acute", "value": "no significant effect"}, {"measurement": "Spontaneous epileptic seizures", "setting": "[5]; up to 1000 mg/kg p.o.", "value": "No occurrence"}, {"measurement": "% Inhibition of control specific binding", "setting": "[6]; S 47445 1.0E-05 M", "value": 1, "unit": "%"}, {"measurement": "% Inhibition of control specific binding", "setting": "[6]; S 47445 1.0E-07 M", "value": -5, "unit": "%"}, {"measurement": "% Inhibition of control specific binding", "setting": "[7]; S 47445 1.0E-05 M", "value": -1, "unit": "%"}, {"measurement": "% Inhibition of control specific binding", "setting": "[7]; S 47445 1.0E-07 M", "value": 4, "unit": "%"}, {"measurement": "% Inhibition of control specific binding", "setting": "[8]; S 47445 1.0E-05 M", "value": -10, "unit": "%"}, {"measurement": "% Inhibition of control specific binding", "setting": "[8]; S 47445 1.0E-07 M", "value": 13, "unit": "%"}, {"measurement": "% Inhibition of control specific binding", "setting": "[9]; S 47445 1.0E-05 M", "value": -5, "unit": "%"}, {"measurement": "% Inhibition of control specific binding", "setting": "[9]; S 47445 1.0E-07 M", "value": -2, "unit": "%"}, {"measurement": "% Inhibition of control specific binding", "setting": "[10]; S 47445 1.0E-05 M", "value": -5, "unit": "%"}, {"measurement": "% Inhibition of control specific binding", "setting": "[10]; S 47445 1.0E-07 M", "value": 0, "unit": "%"}, {"measurement": "Percentage of inhibition of control value", "setting": "[11]; 10 μM S 47445, all assays of S1 Table", "value": "lower than 50%"}, {"measurement": "Ki", "setting": "[11]; read-out: Ki values in all these assays, inferred from <50% inhibition at 10 μM", "value": "> 10", "unit": "µM"}, {"measurement": "% Inhibition of control specific binding", "setting": "[12]; S 47445 1.0E-05 M", "value": 7, "unit": "%"}, {"measurement": "% Inhibition of control specific binding", "setting": "[12]; S 47445 1.0E-07 M", "value": -14, "unit": "%"}, {"measurement": "% Inhibition of control specific binding", "setting": "[13]; S 47445 1.0E-05 M", "value": -1, "unit": "%"}, {"measurement": "% Inhibition of control specific binding", "setting": "[13]; S 47445 1.0E-07 M", "value": 2, "unit": "%"}, {"measurement": "Ki", "setting": "[13]; [19]", "value": "> 10", "unit": "µM"}, {"measurement": "% Inhibition of control specific binding", "setting": "[14]; S 47445 1.0E-05 M", "value": 25, "unit": "%"}, {"measurement": "% Inhibition of control specific binding", "setting": "[14]; S 47445 1.0E-07 M", "value": 7, "unit": "%"}, {"measurement": "Ki", "setting": "[14]; [19]", "value": "> 10", "unit": "µM"}, {"measurement": "% Inhibition of control specific binding", "setting": "[15]; S 47445 1.0E-05 M", "value": -21, "unit": "%"}, {"measurement": "% Inhibition of control specific binding", "setting": "[15]; S 47445 1.0E-07 M", "value": 6, "unit": "%"}, {"measurement": "Reduction of glutamate-induced LDH activity", "setting": "[16]; glutamate 50 μM", "value": 32.2, "unit": "%"}, {"measurement": "Reduction of glutamate-induced LDH activity", "setting": "[16]; glutamate 75 μM", "value": 50.9, "unit": "%"}, {"measurement": "Reduction of glutamate-induced LDH activity", "setting": "[16]; glutamate 100 μM", "value": 49.0, "unit": "%"}, {"measurement": "Effect at kainate-evoked currents", "setting": "[17]", "value": "absence of effect"}, {"measurement": "Leftward shift in the EC50 of glutamate", "setting": "[18]", "value": "about 16 fold"}, {"measurement": "Amplitude of the glutamate response in presence of S 47445", "setting": "[18]; control 94.7 ± 32.8 pA", "value": "247 ± 70", "unit": "pA"}]}]}
